Source: paper PMC6747015, “Structure–function study of a novel inhibitor of the casein kinase 1 family in Arabidopsis thaliana” (Plant Direct, 2019)
“Also recorded” adds a separate entry of the source. Like-named read-outs stand apart in the source and are kept apart here.

Legend:
[1] = tested on: CCA1:LUC seedlings; assay: Bioluminescence-based circadian period lengthening in CCA1:LUC seedlings; format: in vivo, Arabidopsis thaliana; conditions: for Period‐lengthening activity (in words) / Concentration required for 2‐hr period lengthening (2hLC) / Concentration required for 5‐hr period lengthening (5hLC): CCA1:LUC seedlings; for Concentration required for 2‐hr period lengthening (2hLC) / Concentration required for 5‐hr period lengthening (5hLC): constant light
Protocol: Bioluminescence‐based circadian rhythms of CCA1:LUC plants treated with small molecules were analyzed by auto‐luminescence detection (Churitsu CL96) as described previously (Uehara et al., 2019). Period length was automatically calculated as previously described (Kamioka et al., 2016).
To estimate CK1 inhibitor activity in vivo, we choose to measure circadian period‐lengthening activity in Arabidopsis seedlings. The assay was made more efficient by monitoring the circadian period using a clock reporter plant line (CCA1:LUC) and an automated luminometer. These tools can be used to measure the circadian period with high confidence, and estimates of in vivo CK1 inhibitor activity are quantitative (Uehara et al., 2019). Four‐day‐old CCA1:LUC seedlings grown under 12‐hr light/12‐hr dark conditions were treated with IC261, PF‐670462, and PHA767491 at different concentrations, and seedling luminescence was monitored under constant light conditions. Dimethyl sulfoxide (DMSO), the solvent used for all of the CK1 inhibitors, was used as a control. IC261 lengthened the circadian period of CCA1:LUC seedlings in a dose‐dependent manner (Figure 1d), with a 2‐hr period lengthening at 500 µM. PF‐670462 and PHA767491 treatment concentrations also correlated with period lengthening (Figure 1e and f). The concentrations required for 2‐hr lengthening effects were 90 µM for PF‐670472 and 47 µM for PHA767491, which was consistent with previous work (Uehara et al., 2019). Thus, PHA767491 was the strongest in vivo CK1 inhibitor among the three inhibitors tested.

[2] = biological target: T1, Recombinant CKL4 kinase (Arabidopsis thaliana, UniProt Q8LPI7); assay: In vitro phosphorylation assay of CKL4 (32P phosphorylation of casein); format: biochemical
T1 sequence (Q8LPI7 1-414): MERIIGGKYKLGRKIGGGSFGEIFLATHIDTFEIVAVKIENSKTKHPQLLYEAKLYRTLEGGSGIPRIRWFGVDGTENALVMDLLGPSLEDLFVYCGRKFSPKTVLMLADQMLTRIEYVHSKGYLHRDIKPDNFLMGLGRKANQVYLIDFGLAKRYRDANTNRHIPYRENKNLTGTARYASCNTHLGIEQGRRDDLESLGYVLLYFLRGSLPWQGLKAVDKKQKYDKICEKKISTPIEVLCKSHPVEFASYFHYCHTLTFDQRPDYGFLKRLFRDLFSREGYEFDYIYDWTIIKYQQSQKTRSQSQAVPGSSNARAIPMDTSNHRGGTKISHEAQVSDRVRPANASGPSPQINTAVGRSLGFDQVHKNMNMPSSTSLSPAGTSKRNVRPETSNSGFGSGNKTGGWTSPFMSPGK
Protocol: In vitro phosphorylation assays using recombinant CKL4 were performed as described previously (Uehara et al., 2019), with synthetic small molecules. IC261 and PF‐670462 were purchased (Sigma‐Aldrich catalog numbers I0658 and SML0795, respectively). PHA767491 was synthesized as previously described (Uehara et al., 2019). All chemical compounds were dissolved in dimethyl sulfoxide (DMSO) as 10 mM stock solutions. Stock solutions were diluted with DMSO to the working concentration and added to assays in kinase reaction buffer (Uehara et al., 2019).
The activities of three known CK1 inhibitors were measured in vitro by a previously reported method (Uehara et al., 2019). Recombinant CKL4 kinase, casein, ^32P‐ATP, and different concentrations of the inhibitors were combined in a reaction buffer and kept at 37°C for 2 hr. Resulting samples were separated on a polyacrylamide gel by electrophoresis, and ^32P phosphorylation of casein was measured as an indicator of CKL4 kinase activity. IC50 (half‐maximal inhibitory concentration) was determined by calculating the results from at least two independent experiments. […] The stronger in vitro CK1 inhibitory activity shown by PF‐670462 relative to PHA767491 was consistent with previous reports (Uehara et al., 2019).

[3] = tested on: PRR5 and TOC1; parameters: method as in Uehara et al., 2019; conditions: ref Uehara et al., 2019; cited from earlier work
[4] = tested on: CCA1:LUC seedlings; parameters: method as in Uehara et al., 2019; conditions: ref Uehara et al., 2019; cited from earlier work
[5] = tested on: PRR7; assay: RT-qPCR of the CK1 downstream gene PRR7; format: in vivo, Arabidopsis; conditions: 10 and 50 µM, 6 hr
Protocol: Arabidopsis Col‐0 seedlings that had been grown under constant light conditions for […] were immersed in 10 or 50 µM of the GSK‐3, SHAGGY‐related, and BIN2 kinase inhibitor Bikinin (SML0094, Sigma) (De Rybel et al., 2009), […], or DMSO as control for 6 hr. Three biological replicates were used for each assay. Harvested seedlings were frozen in liquid nitrogen and crushed with zirconia beads in a Tissue Lyser II, and RNA was isolated with Illustra RNAspin (25‐0500‐72, GE Healthcare). RT‐qPCR was performed as described previously (Nakamichi et al., 2010) using an Eco Real‐Time PCR System (Illumina). Gene expression was normalized against IPP2, and maximal values were set to 1. Primers for detecting IPP2, PRR7, GR60ox2, and CPD were described previously (De Rybel et al., 2009; Kamioka et al., 2016).
Because the ATSK family was identified by the molecular probe assay as potential targets of AMI‐331, even though the affinities between AMI‐331 and ATSKs were not as high as between AMI‐331 and CK1, we used the ATSK inhibitor Bikinin to determine if AMI‐331 treatment affects the expression of genes downstream of ATSKs (De Rybel et al., 2009). Four‐day‐old Arabidopsis seedlings grown under constant light conditions were treated with Bikinin or AMI‐331 for 6 hr, and mRNA extracted from seedlings samples was analyzed by RT‐qPCR.

[6] = tested on: GR60ox2 and CPD; assay: RT-qPCR of the ATSK downstream genes GR60ox2 and CPD; format: in vivo, Arabidopsis; conditions: 10 or 50 µM, 6 hr
Protocol: […] Three biological replicates were used for each assay. Harvested seedlings were frozen in liquid nitrogen and crushed with zirconia beads in a Tissue Lyser II, and RNA was isolated with Illustra RNAspin (25‐0500‐72, GE Healthcare). RT‐qPCR was performed as described previously (Nakamichi et al., 2010) using an Eco Real‐Time PCR System (Illumina). Gene expression was normalized against IPP2, and maximal values were set to 1. Primers for detecting IPP2, PRR7, GR60ox2, and CPD were described previously (De Rybel et al., 2009; Kamioka et al., 2016).
Because the ATSK family was identified by the molecular probe assay as potential targets of AMI‐331, even though the affinities between AMI‐331 and ATSKs were not as high as between AMI‐331 and CK1, […] affects the expression of genes downstream of ATSKs (De Rybel et al., 2009). […]

[7] = recombinant CKL4, casein, 32P‐ATP, 37°C for 2 hr, read-out: IC50 for in vitro CKL4 kinase activity

## Cc1c(-c2ccncc2)[nH]c2c1C(=O)NCC2 [AMI‐217]
[1]
  Period‐lengthening activity (in words): Strong activities

## C#CCn1c(-c2ccncc2)cc2c1CCNC2=O [AMI‐212]
[1]
  Period‐lengthening activity (in words): weak period‐lengthening activity; also recorded: stronger period‐lengthening activity than AMI‐126
  Concentration required for 2‐hr period lengthening (2hLC): around 7.0 µM
  Concentration required for 5‐hr period lengthening (5hLC): 26 µM
[1]; listed as AMI-212
  Concentration required for 2‐hr period lengthening (2hLC): 7.0 µM
[1]; compared with parent PHA767491
  Period‐lengthening (in vivo inhibitory) activity relative to PHA767491: approximately fivefold higher
[2]; [7]
  IC50: 1200 nM

## O=C1NCCc2[nH]c(-c3ccncc3)c(Br)c21 [AMI‐23]
[1]
  Period‐lengthening activity (in words): Strong activities
  Concentration required for 2‐hr period lengthening (2hLC): 1.5 µM
  Concentration required for 5‐hr period lengthening (5hLC): 5.0 µM
[2]; [7]
  IC50: 700 nM

## Cl.O=C1NCCc2[nH]c(-c3ccncc3)cc21 [PHA767491, 1,5,6,7‐tetrahydro‐2‐(4‐pyridinyl)‐4H‐pyrrolo[3,2‐c]pyridin‐4‐one hydrochloride]
[3]
  Effective concentrations for PRR5 or TOC1 accumulation: 250 to 500 µM
[2]; [7]
  IC50: 5900 nM
[4]
  Effective concentration of PHA767491 as CK1 inhibitor in plants: more than 40 µM

## Cl.O=C1NCCc2c1cc(-c1ccncc1)n2CCn1cccc1 [AMI‐118]
[1]
  Period‐lengthening activity (in words): weak period‐lengthening activity

## COc1cc(OC)c(C=C2C(O)=Nc3ccccc32)c(OC)c1 [IC261, reference compound]
[2]
  IC50: 6700 nM

## O=C1NCCc2[nH]c(-c3ccncc3)c(Cl)c21 [AMI‐24]
[1]
  Period‐lengthening activity (in words): Strong activities

## O=C(O)CCC(=O)Nc1ccc(Br)cn1 [Bikinin, reference compound]
[5]
  PRR7 transcript abundance: did not affect
[6]
  GR60ox2 and CPD transcript abundance: reduced
[4]
  Period lengthening on inhibition of ATSKs: did not result in period lengthening

## Nc1nccc(-c2c(-c3ccc(F)cc3)ncn2C2CCCCC2)n1 [PF‐670462, reference compound]
[2]; [7]
  IC50: 800 nM

## CCn1c(-c2ccncc2)cc2c1CCNC2=O [AMI‐126]
[1]
  Period‐lengthening activity (in words): strong activity
